Our source for the IC50 values is patent publication US20240425479A1, “HALO-SUBSTITUTED AMINO AZA-HETEROARYL COMPOUNDS AS INHIBITORS OF THE HAEMATOPOIETIC PROGENITOR KINASE 1 (HPK1)” (priority 2021, published 2024).

The experiment concerns the target T1, Recombinant (1-346) HPK1 (h) (Homo sapiens, UniProt Q92918).
T1 construct: Recombinant (1-346) HPK1 (h) is incubated with 8 mM MOPS pH 7.0
T1 sequence (Q92918 1-346): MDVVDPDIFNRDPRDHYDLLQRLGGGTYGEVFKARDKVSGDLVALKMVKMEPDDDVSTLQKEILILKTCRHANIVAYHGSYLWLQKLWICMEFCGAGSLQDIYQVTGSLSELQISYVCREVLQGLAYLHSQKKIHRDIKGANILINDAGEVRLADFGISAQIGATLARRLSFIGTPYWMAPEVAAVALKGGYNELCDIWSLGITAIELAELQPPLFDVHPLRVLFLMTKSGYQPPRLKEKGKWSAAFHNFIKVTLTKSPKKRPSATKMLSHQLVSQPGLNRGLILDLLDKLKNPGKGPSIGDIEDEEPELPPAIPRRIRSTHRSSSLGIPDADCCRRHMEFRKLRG
The experiment can be described thus: HPK1 human STE kinase enzymatic radiometric assay. Particulars: read-out: HPK1 IC50 nM Range. The format is biochemical. Put shortly:
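Compounds in 3-fold, 9-point serial dilution; kinase (residues 1-346) phosphorylates myelin basic protein (0.33 mg/mL) using [gamma-33P]-ATP at pH 7.0 (MOPS, EDTA, Mg acetate) for 40 min, room temperature. Acid-quenched mixture filtered onto P30 mats; incorporated radioactivity read by scintillation counting.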
Regarding `Cc1c[nH]c(=O)c2ccc(-c3nc(-c4cc(CN(C)C)c(N5CCOCC5)c(F)c4F)c(F)nc3N)cc12` [Example I-264, 6-(3-amino-6-(5-((dimethylamino)methyl)-2,3-difluoro-4-morpholinophenyl)-5-fluoropyrazin-2-yl)-4-methylisoquinolin-1(2H)-one], the IC50 is 101 to 1000 nM. With `CN(C)[C@@H]1CCOc2ccc(-c3nc(-c4cc(F)c5c(c4)CCNC5=O)c(N)nc3F)cc21` [Example I-289, (R)-6-(3-amino-6-(4-(dimethylamino)chroman-6-yl)-5-fluoropyrazin-2-yl)-8-fluoro-3,4-dihydroisoquinolin-1(2H)-one] the figure was 11 to 100 nM; with `CN(C)[C@@H]1COc2ccc(-c3nc(-c4ccc5c(=O)[nH]cc(F)c5c4)c(N)nc3F)cc21` [Example I-251, (S)-6-(3-amino-6-(3-(dimethylamino)-2,3-dihydrobenzofuran-5-yl)-5-fluoropyrazin-2-yl)-4-fluoroisoquinolin-1(2H)-one], 0.1 to 10 nM; with `Cc1nc2cc(-c3nc(-c4ccc(N5CCN(CCCC(F)F)CC5)cc4)c(F)nc3N)ccc2c(=O)[nH]1` [Example I-81, 7-(3-amino-6-(4-(4-(4,4-difluorobutyl)piperazin-1-yl)phenyl)-5-fluoropyrazin-2-yl)-2-methylquinazolin-4(3H)-one], 11 to 100 nM.

Turning to `Nc1nc(F)c(-c2ccc(N3CCOCC3)c(CN3CCC3)c2F)nc1-c1cc2c(cc1F)C(=O)NCC2` [Example I-244, 6-(3-amino-6-(3-(azetidin-1-ylmethyl)-2-fluoro-4-morpholinophenyl)-5-fluoropyrazin-2-yl)-7-fluoro-3,4-dihydroisoquinolin-1(2H)-one], the IC50 lay within 11 to 100 nM.

Take `Cc1nc2cc(-c3nc(-c4ccc(N5C[C@@H](C)O[C@@H](C)C5)c(CN(C)C)c4)c(F)nc3N)ccc2c(=O)[nH]1` [Example I-194, 7-(3-amino-6-(3-((dimethylamino)methyl)-4-((2R,6S)-2,6-dimethylmorpholino)phenyl)-5-fluoropyrazin-2-yl)-2-methylquinazolin-4(3H)-one]: the IC50 was in the range of 11 to 100 nM. With `C[C@@H]1CN(C)CCN1c1ccc(-c2nc(-c3ccc4c(c3)CCNC4=O)c(N)nc2F)cc1` [Example I-52, (R)-6-(3-amino-6-(4-(2,4-dimethylpiperazin-1-yl)phenyl)-5-fluoropyrazin-2-yl)-3,4-dihydroisoquinolin-1(2H)-one] the figure was 0.1 to 10 nM; with `C[C@H]1CCCN1Cc1cc(-c2nc(-c3ccc4c(=O)[nH]cc(F)c4c3)c(N)nc2F)ccc1C1CCOCC1` [Example I-228, (S)-6-(3-amino-5-fluoro-6-(3-((2-methylpyrrolidin-1-yl)methyl)-4-(tetrahydro-2H-pyran-4-yl)phenyl)pyrazin-2-yl)-4-fluoroisoquinolin-1(2H)-one], 0.1 to 10 nM. With `CN(C)Cc1cc(-c2nc(-c3ccc4c(=O)[nH]cc(F)c4c3)c(N)nc2F)cc2c1OCCO2` [Example I-269, 6-(3-amino-6-(8-((dimethylamino)methyl)-2,3-dihydrobenzo[b][1,4]dioxin-6-yl)-5-fluoropyrazin-2-yl)-4-fluoroisoquinolin-1(2H)-one] the figure was 0.1 to 10 nM; with `C[C@H]1CN(c2ccc(-c3nc(-c4ccc5c(c4)CCNC5=O)c(N)nc3F)cc2CN2CCC2)CCO1` [Example I-214, (S)-6-(3-amino-6-(3-(azetidin-1-ylmethyl)-4-(2-methylmorpholino)phenyl)-5-fluoropyrazin-2-yl)-3,4-dihydroisoquinolin-1(2H)-one], 0.1 to 10 nM. Take `Cc1[nH]c(=O)c2c(F)cc(-c3nc(-c4ccc(N5CCN(C(C)C)CC5)cc4)c(F)nc3N)cc2c1Cl` [Example I-102, 6-(3-amino-5-fluoro-6-(4-(4-isopropylpiperazin-1-yl)phenyl)pyrazin-2-yl)-4-chloro-8-fluoro-3-methylisoquinolin-1(2H)-one]: the IC50 lay in the range of 0.1 to 10 nM. For the molecule `Nc1nc(F)c(-c2ccc(N3CCN(CCCC(F)F)CC3)cc2)nc1-c1cc2c(cc1F)C(=O)NCC2` [Example I-69, 6-(3-amino-6-(4-(4-(4,4-difluorobutyl)piperazin-1-yl)phenyl)-5-fluoropyrazin-2-yl)-7-fluoro-3,4-dihydroisoquinolin-1(2H)-one], the IC50 lay within 0.1 to 10 nM. Next, `Cc1[nH]c(=O)c2ccc(-c3nc(-c4ccc(N5CCN(CC6CC6)CC5)cc4)c(F)nc3N)cc2c1Cl` [Example I-122, 6-(3-amino-6-(4-(4-(cyclopropylmethyl)piperazin-1-yl)phenyl)-5-fluoropyrazin-2-yl)-4-chloro-3-methylisoquinolin-1(2H)-one]: 0.1 to 10 nM; `Nc1nc(F)c(-c2ccc(N3CCN(C4COC4)CC3)cc2)nc1-c1ccc2c(c1)CCNC2=O` [Example I-46, 6-(3-amino-5-fluoro-6-(4-(4-(oxetan-3-yl)piperazin-1-yl)phenyl)pyrazin-2-yl)-3,4-dihydroisoquinolin-1(2H)-one]: 0.1 to 10 nM.

Turning to `Cc1c[nH]c(=O)c2ccc(-c3nc(-c4ccc(N5CCN(CCCC(F)F)CC5)cc4)c(F)nc3N)cc12` [Example I-73, 6-(3-amino-6-(4-(4-(4,4-difluorobutyl)piperazin-1-yl)phenyl)-5-fluoropyrazin-2-yl)-4-methylisoquinolin-1(2H)-one], the IC50 lay within 0.1 to 10 nM. In the case of `CC(C)N1CCN(c2ccc(-c3nc(-c4ccc5c(c4)CCNC5=O)c(N)nc3F)cc2)[C@H](C)C1` [Example I-50, (R)-6-(3-amino-5-fluoro-6-(4-(4-isopropyl-2-methylpiperazin-1-yl)phenyl)pyrazin-2-yl)-3,4-dihydroisoquinolin-1(2H)-one], the IC50 is 0.1 to 10 nM. Next, `Nc1nc(F)c(-c2ccc(N3CCN(CCCC(F)F)CC3)cc2)nc1-c1cc(F)c2c(c1)CCNC2=O` [Example I-137, 6-(3-amino-6-(4-(4-(4,4-difluorobutyl)piperazin-1-yl)phenyl)-5-fluoropyrazin-2-yl)-8-fluoro-3,4-dihydroisoquinolin-1(2H)-one]: 0.1 to 10 nM; `CCN(C)Cc1cc(-c2nc(-c3ccc4c(c3)C(F)(F)CNC4=O)c(N)nc2F)ccc1C1=CCOCC1` [Example I-225, 6-(3-amino-6-(4-(3,6-dihydro-2H-pyran-4-yl)-3-((ethyl(methyl)amino)methyl)phenyl)-5-fluoropyrazin-2-yl)-4,4-difluoro-3,4-dihydroisoquinolin-1(2H)-one]: 11 to 100 nM; `Nc1nc(F)c(-c2ccc(N3CCOCC3)c(CN3CCC3)c2F)nc1-c1cc(F)c2c(c1)CCNC2=O` [Example I-245, 6-(3-amino-6-(3-(azetidin-1-ylmethyl)-2-fluoro-4-morpholinophenyl)-5-fluoropyrazin-2-yl)-8-fluoro-3,4-dihydroisoquinolin-1(2H)-one]: 11 to 100 nM. With `CO[C@H]1CCN(Cc2cc(-c3nc(-c4cc5c(cc4F)C(=O)NCC5)c(N)nc3F)ccc2N2CCOCC2)C1` [Example I-157, (S)-6-(3-amino-5-fluoro-6-(3-((3-methoxypyrrolidin-1-yl)methyl)-4-morpholinophenyl)pyrazin-2-yl)-7-fluoro-3,4-dihydroisoquinolin-1(2H)-one] the figure was 0.1 to 10 nM; with `Cc1nc2cc(-c3nc(-c4ccc(N5CCN(C(C)C)CC5)cc4)c(F)nc3N)c(F)cc2c(=O)[nH]1` [Example I-63, 7-(3-amino-5-fluoro-6-(4-(4-isopropylpiperazin-1-yl)phenyl)pyrazin-2-yl)-6-fluoro-2-methylquinazolin-4(3H)-one], 0.1 to 10 nM; with `C[C@@H]1CCCN1Cc1cc(-c2nc(-c3ccc4c(=O)[nH]cc(F)c4c3)c(N)nc2F)ccc1C1CCOCC1` [Example I-226, (R)-6-(3-amino-5-fluoro-6-(3-((2-tmethylpyrrolidin-1-yl)methyl)-4-(tetrahydro-2H-pyran-4-yl)phenyl)pyrazin-2-yl)-4-fluoroisoquinolin-1(2H)-one], 0.1 to 10 nM.

Turning to `Cc1[nH]c(=O)c2c(F)cc(-c3nc(-c4ccc(N5CCN(CC6CC6)CC5)cc4)c(F)nc3N)cc2c1Cl` [Example I-107, 6-(3-amino-6-(4-(4-(cyclopropylmethyl)piperazin-1-yl)phenyl)-5-fluoropyrazin-2-yl)-4-chloro-8-fluoro-3-methylisoquinolin-1(2H)-one], the IC50 was in the range of 0.1 to 10 nM. For `C[C@@H]1CN(c2ccc(-c3nc(-c4cc(F)c5c(c4)CCNC5=O)c(N)nc3F)cc2CN(C)C)CCO1` [Example I-177, (R)-6-(3-amino-6-(3-((dimethylamino)methyl)-4-(2-methylmorpholino)phenyl)-5-fluoropyrazin-2-yl)-8-fluoro-3,4-dihydroisoquinolin-1(2H)-one], the IC50 was 0.1 to 10 nM. With `C[C@@H]1CN(c2ccc(-c3nc(-c4ccc5c(=O)[nH]cc(F)c5c4)c(N)nc3F)cc2CN(C)C)C[C@H](C)O1` [Example I-230, 6-(3-amino-6-(3-((dimethylamino)methyl)-4-((2R,6S)-2,6-dimethylmorpholino)phenyl)-5-fluoropyrazin-2-yl)-4-fluoroisoquinolin-1(2H)-one], the IC50 was in the range of 0.1 to 10 nM. With `COC1CCN(Cc2cc(-c3nc(-c4cc5c(cc4F)C(=O)NCC5)c(N)nc3F)ccc2C2CCOCC2)CC1` [Example I-132, 6-(3-amino-5-fluoro-6-(3-((4-methoxypiperidin-1-yl)methyl)-4-(tetrahydro-2H-pyran-4-yl)phenyl)pyrazin-2-yl)-7-fluoro-3,4-dihydroisoquinolin-1(2H)-one] the figure was 11 to 100 nM.
